Laboratory results reported in US8952177B2 (Janssen Pharmaceutica NV, priority 2013, dated 2015).
Counter-ions that a name gives are not always drawn.

Tests used:
[1] = target: human FLAP (Homo sapiens (Human), UniProt P20292); experiment: FLAP binding assay (HTRF format); conditions: human FLAP-containing Sf-9 membranes, 25 nM HTRF ligand, 2 h; average of runs; read-out: FLAP Binding wild type HTRF Ki
Summary of the method: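 His6-tagged human FLAP in Sf-9 membranes competed against a FITC-labelled indole FLAP modulator in HTRF format; 2 h reaction, read as HTRF ratio. Ki and IC50 from averaged duplicate ratios over 2–20 runs of two plates each; parenthetical numbers give run count.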

[2] = system: leukotriene pathway in human whole blood (LTB4); experiment: Human whole blood assay (LTB4 after calcium ionophore A23187 stimulation); assay type: cell-based; conditions: Homo sapiens, human whole blood diluted 1:1 in RPMI, 15 min pre-incubation, A23187 7 μg/mL for 30 min at 37° Celsius
Summary of the method: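 Heparinised human whole blood, diluted 1:1 in RPMI, was preincubated with compound for 15 min at 37° C. before stimulation with A23187 (7 μg/mL) for 30 min. Plasma LTB4 was measured by immunoassay kit and IC50 obtained by 4-parameter fit; single replicate per plate, blood from at least one donor.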

Sequence of human FLAP (P20292 whole entry): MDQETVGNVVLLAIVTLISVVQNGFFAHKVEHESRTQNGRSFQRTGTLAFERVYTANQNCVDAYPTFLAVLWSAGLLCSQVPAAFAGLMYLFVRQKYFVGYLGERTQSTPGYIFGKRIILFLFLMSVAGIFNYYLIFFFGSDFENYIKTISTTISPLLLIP

SMILES | Ki [1] [nM] | IC50 [2] [nM]
Cn1ccc(COc2ccc3nc([C@@H]4CCCC[C@@H]4C(=O)O)n(Cc4ccc(OC(F)(F)F)cc4F)c3c2)n1 (stereo in doubt) [Example 52, (1S*,2R*)-2-{1-[2-Fluoro-4-(trifluoromethoxy)benzyl]-6-[(1-methyl-1H-pyrazol-3-yl)methoxy]-1H-benzimidazol-2-yl}cyclohexanecarboxylic acid] | > 10000 | > 10000
Cn1ccc(COc2cc(F)c3nc([C@@H]4CCCC[C@@H]4C(=O)O)n(Cc4ccc(N5CCCCC5)cc4)c3c2)n1 (racemic) [Example 169, racemic cis-2-{4-Fluoro-6-[(1-methyl-1H-pyrazol-3-yl)methoxy]-1-(4-piperidin-1-ylbenzyl)-1H-benzimidazol-2-yl}cyclohexanecarboxylic acid as the HCl salt] | 12 | 1220
CCC(CC)(Cc1nc2c(F)cc(OCc3ccc(C)cn3)cc2n1Cc1ccc(C)cc1)C(=O)O [Example 71, 2-Ethyl-2-({4-fluoro-1-(4-methylbenzyl)-6-[(5-methylpyridin-2-yl)methoxy]-1H-benzimidazol-2-yl}methyl)butanoic acid as the TFA salt] | 49 | 3350
CCC(CC)(Cc1nc2ccc(OCc3ncc(C)cc3F)cc2n1Cc1ccc(N2CCC(F)CC2)cc1)C(=O)O [Example 182, 2-Ethyl-2-({6-[(3-fluoro-5-methylpyridin-2-yl)methoxy]-1-[4-(4-fluoropiperidin-1-yl)benzyl]-1H-benzimidazol-2-yl}methyl)butanoic acid] | 11 | 480
Cc1cc(OC(F)(F)F)ccc1Cn1c([C@@H]2CCCC[C@@H]2C(=O)O)nc2ccc(OCc3ccn(C)n3)cc21 (racemic) [Example 99, racemic cis-2-{6-[(1-Methyl-1H-pyrazol-3-yl)methoxy]-1-[2-methyl-4-(trifluoromethoxy)benzyl]-1H-benzimidazol-2-yl}cyclohexanecarboxylic acid] | 18 | 1060
Cn1ccc(COc2ccc3nc([C@H]4CCCC[C@H]4C(=O)O)n(Cc4ccc(OC(F)(F)F)cc4F)c3c2)n1 (stereo in doubt) [Example 53, (1R*,2S*)-2-(1-(2-Fluoro-4-(trifluoromethoxy)benzyl)-6-((1-methyl-1H-pyrazol-3-yl)methoxy)-1H-benzo[d]imidazol-2-yl)cyclohexanecarboxylic acid] | 3 | 270
CCC(CC)(Cc1nc2ccc(OCc3ncc(C)cc3F)cc2n1Cc1ccc(N2CCC(C)CC2)cc1F)C(=O)O [Example 181, 2-Ethyl-2-({1-[2-fluoro-4-(4-methylpiperidin-1-yl)benzyl]-6-[(3-fluoro-5-methylpyridin-2-yl)methoxy]-1H-benzimidazol-2-yl}methyl)butanoic acid] | 5.2 | 48
Cn1ccc(COc2ccc3nc([C@@H]4CCCC[C@@H]4C(=O)O)n(Cc4ccc(OC(F)(F)F)cc4F)c3c2)n1 (stereo in doubt) [Example 51, racemic cis-2-{1-[2-Fluoro-4-(trifluoromethoxy)benzyl]-6-[(1-methyl-1H-pyrazol-3-yl)methoxy]-1H-benzimidazol-2-yl}cyclohexanecarboxylic acid] | 8 | 340
Cn1cc(Cl)c(COc2ccc3nc([C@@H]4CCCC[C@@H]4C(=O)O)n(Cc4ccc(N5CCC(F)CC5)cc4)c3c2)n1 (racemic) [Example 87, racemic cis-2-{6-[(4-Chloro-1-methyl-1H-pyrazol-3-yl)methoxy]-1-[4-(4-fluoropiperidin-1-yl)benzyl]-1H-benzimidazol-2-yl}cyclohexanecarboxylic acid] | 15 | 1780
Cc1cnc(COc2ccc3nc([C@H]4CCCC[C@H]4C(=O)O)n(Cc4ccc(N5CCC(F)CC5)cc4)c3c2)c(F)c1 (relative stereo) [Example 176, (1R*,2S*)-2-{6-[(3-Fluoro-5-methylpyridin-2-yl)methoxy]-1-[4-(4-fluoropiperidin-1-yl)benzyl]-1H-benzimidazol-2-yl}cyclohexanecarboxylic acid] | 0.42 | 110
CCC(CC)(Cc1nc2ccc(OCc3ccc(C)cn3)cc2n1Cc1ccc(OC(F)(F)F)cc1C)C(=O)O [Example 105] | 40 | 6250
Cc1cnc(COc2ccc3nc(CC(C)(C)C(=O)O)n(Cc4ccc(N5CC(C(F)(F)F)C5)cc4F)c3c2)c(F)c1 [Example 183, 3-(6-[(3-Fluoro-5-methylpyridin-2-yl)methoxy]-1-{2-fluoro-4-[3-(trifluoromethyl)azetidin-1-yl]benzyl}-1H-benzimidazol-2-yl)-2,2-dimethylpropanoic acid] | 13 | 880
Cc1cnc(COc2ccc3nc(CC(C)(C)C(=O)O)n(Cc4c(F)cc(Br)cc4F)c3c2)c(F)c1 [Example 130, 3-{1-(4-Bromo-2,6-difluorobenzyl)-6-[(3-fluoro-5-methylpyridin-2-yl)methoxy]-1H-benzimidazol-2-yl}-2,2-dimethylpropanoic acid] | 15 | 840
CCC(CC)(Cc1nc2ccc(OCc3ccc(C)cn3)cc2n1Cc1cccc(Br)c1)C(=O)O [Example 14, 2-({1-(3-Bromobenzyl)-6-[(5-methylpyridin-2-yl)methoxy]-1H-benzimidazol-2-yl}methyl)-2-ethylbutanoic acid] | 56 | > 10000
Cc1cnc(COc2ccc3nc(CC(C)(C)C(=O)O)n(Cc4ccc(Br)cc4)c3c2)c(F)c1 [Example 128, 3-{1-(4-Bromobenzyl)-6-[(3-fluoro-5-methylpyridin-2-yl)methoxy]-1H-benzimidazol-2-yl}-2,2-dimethylpropanoic acid] | 8.5 | 1320
Cc1ccc(Cn2c(CC(C)(C)C(=O)O)nc3ccc(OCc4ncc(C)cc4F)cc32)c(F)c1 [Example 127, 3-{1-(2-Fluoro-4-methylbenzyl)-6-[(3-fluoro-5-methylpyridin-2-yl)methoxy]-1H-benzimidazol-2-yl}-2,2-dimethylpropanoic acid] | 160 | 2120
Cn1ccc(COc2cc(F)c3nc([C@@H]4CCCC[C@@H]4C(=O)O)n(Cc4ccc(Br)cc4)c3c2)n1 (racemic) [Example 93, racemic cis-2-{1-(4-Bromobenzyl)-4-fluoro-6-[(1-methyl-1H-pyrazol-3-yl)methoxy]-1H-benzimidazol-2-yl}cyclohexanecarboxylic acid] | 1.1 | 550
